According to PubChem BioAssay AID720512 (Broad Institute, 2013):
Active and inactive are the calls of the source. The rule behind the calls is not given here.

Target: Toxin B (TcdB) glycohydrolase, Clostridioides difficile 630
Test: TcdB glycohydrolase inhibitors, dose response, biochemical, cherry-pick, plate reader (AID 720512)
Conditions: recombinant TcdB glycohydrolase activity

| SMILES | activity change, negative = inhibition (at 19.5 µM (top of the series)) | also measured |
| --- | --- | --- |
| CCN1/C(=C2\OC(=S)N(C)C2=O)C=Cc2ccccc21 | inactive |  |
| COc1ccc(NC(c2ccccc2)c2ccncc2)cc1 (stereo unspecified) | inactive |  |
| COc1ccccc1Oc1cn[nH]c1-c1ccc(O)cc1O | inactive |  |
| CC(=O)Nc1ccc(N(C(=O)c2ccco2)C(C(=O)NC2CCCC2)c2cccs2)cc1 (stereo unspecified) | inactive |  |
| O=C(/C=C/c1ccccc1)Nc1cccnc1Cl | inactive |  |
| O=C(O)c1cc(S(=O)(=O)Nc2ccc3cn[nH]c3c2)ccc1Cl | inactive |  |
| Cc1ccn2c(Cc3ccccc3)c(-c3ccc(F)cc3)nc2c1 | inactive |  |
| CCC(C)NC(=O)CSc1nc2cc(S(=O)(=O)N3CCOCC3)ccc2n1CC (stereo unspecified) | inactive |  |
| CCC(=O)c1cn(CC(=O)Nc2cccc(C)c2C)c2ccccc12 | inactive |  |
| CC1CCC/C(=C\c2ccc(O)cc2)C1=O (stereo unspecified) |  | AC50: 16.9 µM |
| Cc1onc(-c2ccccc2)c1C(=O)N/N=C/c1cn(C)c2ccccc12 | inactive |  |
| Cc1ccc(/C=C/c2onc(C)c2S(=O)(=O)N2CCC(C(=O)N3CCCCC3)CC2)cc1 | inactive |  |
| CC(=O)Nc1ccc(S(=O)(=O)Nc2nc3ccccc3nc2-n2ccc(=NC(=O)c3ccc(F)cc3)cc2)cc1 | inactive |  |
| COc1cc2oc3ccc(C#Cc4ccccn4)cc3c(=O)c2cc1OC | inactive |  |
| O=C1c2c(O)ccc(O)c2C(=O)c2c(NCCNCCO)ccc(NCCNCCO)c21 |  | activity change, negative = inhibition (at 10 µM (top of the series)): inactive |
| COc1ccc(/C=C\c2onc(C)c2S(=O)(=O)N2CCC(C(=O)NCCC(C)C)CC2)cc1 | inactive |  |
| Cc1ccc(S(=O)(=O)Oc2cccc(/C=N/n3cnnc3)c2)cc1 | inactive |  |
| COc1ccc(NC(=O)Cn2cnc3sc(C)c(S(=O)(=O)N4CCOCC4)c3c2=O)c(OC)c1 | inactive |  |

| SMILES | activity change, negative = inhibition (at 19.5 µM (top of the series)) | also measured |
| --- | --- | --- |
| CCOC(=O)c1sc(=S)[nH]c1C | inactive |  |
| c1ccc(Cc2nnc3n2N=C(c2ccccc2)CS3)cc1 | inactive |  |
| CC(=O)Nc1cccc2cc(O)ccc12 |  | AC50: > 39 µM (inactive) |
| CCNC(=O)C[C@H]1CC[C@@H]2[C@@H](COc3ccc(NC(C)=O)cc3C(=O)N2C)O1 | inactive |  |
| CCNC(=O)C[C@H]1CC[C@@H]2[C@H](COc3ccc(NC(C)=O)cc3C(=O)N2C)O1 | inactive |  |
| Cc1ccc(C(=O)OCC(=O)c2cc(C)n(CC3CCCO3)c2C)cc1 (stereo unspecified) | inactive |  |
| COc1ccc(C2=NS(=O)(=O)N(C)C(C(=O)NCc3ccc(F)cc3)=C2)cc1OC | inactive |  |
| O=C(C[C@@H]1C[C@H]2c3cc(NC(=O)Nc4ccccc4)ccc3O[C@H]2[C@H](CO)O1)NCc1ccccc1 | inactive |  |
| Cc1cscc1-c1nc(NCC2CC2)nc2ccsc12 | inactive |  |
| O=P1(Oc2ccccc2)OCCCS1 (stereo unspecified) | inactive |  |
| Nc1nnn(CC(=O)N/N=C/c2ccc(O)cc2)n1 | inactive |  |
| COc1ccc(N2CCN(CCNC(=O)Nc3cc(Cl)ccc3OC)CC2)cc1 | inactive |  |
| COc1ccc(/C=C2\CCC(C3CCCC3)C2=O)cc1 (stereo unspecified) | inactive |  |
| Cc1ccc(-c2nc3ccc([N+](=O)[O-])cc3[nH]2)cc1 | inactive |  |
| O=C(COc1ccc2ccc(=O)oc2c1)NCCN1CCOCC1 | inactive |  |
| O=C(C[C@@H]1CC[C@@H]2[C@H](COC[C@@H](O)CN2C(=O)Nc2ccc(Cl)c(Cl)c2)O1)NCc1ccncc1 | inactive |  |
| COc1ccccc1-n1c(CCC(=O)O)ccc1-c1ccccc1 | inactive |  |
| CC(C)CNC(=O)C(=O)NCC1CCCN1S(=O)(=O)c1cccs1 (stereo unspecified) | inactive |  |
